From patent publication US10517806B2, “Antimicrobial foaming compositions containing cationic active ingredients” (ECOLAB USA INC., priority 2014, dated 2019)

Key:
S. aureus (ATCC # 6538) = test: Time kill activity (ASTM E 2315), log reduction; type: cell-based; details: 30 seconds
Description: (§1) In this test, a diluted aliquot of the composition is brought into contact with a known population of test bacteria for a specified time period at a specified temperature. The test composition is neutralized at the end of the time period, which arrests the antimicrobial activity of the composition. The percent or, alternatively, log reduction from the original bacteria population is calculated. In general, the time kill method is known to those skilled in the art. […] The choice of which concentration to use is at the discretion of the investigator, and suitable concentrations are readily determined by those skilled in the art. All testing if performed in triplicate, the results are combined, and the average log reduction is reported. • (c) The choice of contact time period also is at the discretion of the investigator. Any contact time period can be chosen. Typical contact times range from 10 second to 5 minutes, with 30 seconds and 1 minute being typical contact times. The contact temperature also can be any temperature, typically room temperature, or about 25 degrees Celsius. • (d) The microbial suspension, or test inoculum, is prepared by growing a microbial culture on any appropriate solid media (e.g., agar). The microbial population then is washed from the agar with sterile physiological saline and the population of the microbial suspension is adjusted to about 10^8 colony forming units per ml (cfu/ml). • (e) The table below lists the test microbial cultures used in the following tests and includes the name of the bacteria, the ATCC (American Type Culture Collection) identification number, and the abbreviation for the name of the organism used hereafter.
(§2) The log reduction is calculated using the formula: Log reduction=log10(numbers control)−log10(test sample survivors). Foam Height Determination

E. coli (ATCC # 112229) = test: Time kill activity (ASTM E 2315), log reduction; type: cell-based, Escherichia coli; details: 30 seconds
Description: as §1, §2

[1] = active at 0.65% w/w in the composition of formulation example 15, pH 6.25
[2] = active at 2% w/w in the composition of formulation example 15, pH 6.25
[3] = active at 4% w/w in the composition of formulation example 15, pH 6.25

| Compound | S. Aureus log reduction (S. aureus (ATCC # 6538); [1]) | E. coli log reduction (E. coli (ATCC # 112229); [1]) | S. Aureus log reduction (S. aureus (ATCC # 6538); [2]) | S. Aureus log reduction (S. aureus (ATCC # 6538); [3]) | E. coli log reduction (E. coli (ATCC # 112229); [2]) | E. coli log reduction (E. coli (ATCC # 112229); [3]) |
| --- | --- | --- | --- | --- | --- | --- |
| CCCCCCCCCC[N+](C)(C)CCCCCCCCCC.[Cl-] [Didecyl Dimethyl Ammonium Chloride] | >5.39 | >5.73 |  |  |  |  |
| N=C(NCCCCCCNC(=N)NC(=N)Nc1ccc(Cl)cc1)NC(=N)Nc1ccc(Cl)cc1.O=C(O)[C@H](O)[C@@H](O)[C@H](O)[C@H](O)CO.O=C(O)[C@H](O)[C@@H](O)[C@H](O)[C@H](O)CO [Chlorohexidine Gluconate] |  |  | >5.39 | >5.39 | >5.73 | >5.73 |
| Polyhexamethylene Biguanide | 3.10 | >5.73 |  |  |  |  |
| CC(C)(C)CC(C)(C)c1ccc(OCCOCC[N+](C)(C)Cc2ccccc2)cc1 [Benzethonium Chloride] | >5.39 | >5.73 |  |  |  |  |
